Experimental data taken from ChEMBL document CHEMBL1201862, “PubChem BioAssay data set” (2004).
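Exposure lasted 48 hours, with cells grown in 96-well plates and compounds tested at five concentrations. Abbreviation: GI50, concentration required for 50% inhibition of growth.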 Calls of active or inactive are those of the source. Rule as the data show it: active = GI50 up to about 1.1 µM and inactive = higher.

Assays:
Assay in all cases: inhibition of tumour cell growth, NCI panel, 48 h
SN12C = system: SN12C
SF-268 = system: SF-268
SK-MEL-28 = system: SK-MEL-28
TK-10 = system: TK-10
A498 = system: A498
HCT-15 = system: HCT-15
Hs-578T = system: Hs-578T
CAKI-1 = system: CAKI-1
UACC-62 = system: UACC-62
MCF7 = system: MCF7
RPMI-8226 = system: RPMI-8226
UACC-257 = system: UACC-257
MDA-N = system: MDA-N
HOP-92 = system: HOP-92
HT-29 = system: HT-29
SK-MEL-2 = system: SK-MEL-2
SK-MEL-5 = system: SK-MEL-5
SF-539 = system: SF-539
UO-31 = system: UO-31
M14 = system: M14

COc1cc2oc(=O)ccc2cc1C(=O)CC(C)C
GI50 (SN12C): > 100 µM (inactive) | GI50 (SF-268): 99.3 µM (inactive) | GI50 (SK-MEL-28): > 100 µM (inactive) | GI50 (TK-10): > 100 µM (inactive) | GI50 (A498): > 100 µM (inactive) | GI50 (HCT-15): > 100 µM | GI50 (Hs-578T): 38.5 µM (inactive) | GI50 (CAKI-1): 22.9 µM (inactive) | GI50 (UACC-62): > 100 µM (inactive) | GI50 (MCF7): 73.8 µM (inactive) | GI50 (RPMI-8226): > 100 µM (inactive) | GI50 (UACC-257): > 100 µM (inactive) | GI50 (MDA-N): > 100 µM (inactive) | GI50 (HOP-92): > 100 µM (inactive) | GI50 (HT-29): > 100 µM (inactive) | GI50 (SK-MEL-2): > 100 µM (inactive) | GI50 (SK-MEL-5): > 100 µM (inactive) | GI50 (SF-539): > 100 µM (inactive) | GI50 (UO-31): > 100 µM (inactive) | GI50 (M14): > 100 µM (inactive)
